The text below walks through data of ChEMBL document CHEMBL1146417, “New anti-HIV-1, antimalarial, and antifungal compounds from Terminalia bellerica” (J Nat Prod, 1997).

The subject of one experiment is Candida albicans. The experiment in a line: Antifungal activity against Candida albicans IMI 349010 on TLC plate by agar overlay method. The experiment is classed as functional.
The test system of the next experiment is Penicillium expansum. The experiment in a line: Antifungal activity against Penicillium expansum IMI 960902 on TLC plate by bioautographic method. The experiment is classed as functional.
In a further experiment the test system is Plasmodium falciparum. The experiment in a line: Antimalarial activity against chloroquine-sensitive Plasmodium falciparum 3D7 by [3H]hypoxanthine incorporation assay. The experiment is classed as functional, organism-based.
In experiment [1] the test system is Human immunodeficiency virus 1. The experiment in a line: Antiviral activity against HIV1 in MT4 cells assessed as reduction of HIV antigen production. The experiment is classed as functional, organism-based. The following applies: Human immunodeficiency virus 1, MT4.

Turning to `Oc1ccc2c(c1)O[C@H](c1ccc3c(c1)OCO3)CC2`, the Activity amounted to 6 µg in the experiment with Candida albicans and 3 µg in the experiment on Penicillium expansum. In the experiment on Plasmodium falciparum, this compound had an IC50 greater than 50 µM. In addition, the EC50 in experiment [1] is 7 µM.
For `C=C(Cc1ccc(O)cc1)C(=C)Cc1ccc(OC)cc1O` [TERMILIGNAN], the Activity with Candida albicans worked out at 10 µg; with Penicillium expansum it was 1 µg. The compound also returned a 50% inhibitory concentration (IC50) in the experiment with Plasmodium falciparum of 9.6 µM. In experiment [1], the half-maximal effective concentration (EC50) amounted to 7 µM.
On to NYSTATIN, for which, in the experiment with Penicillium expansum, the Activity was 0.5 µg.
For the compound `C=C(Cc1ccc(O)cc1)C(O)(CO)Cc1ccc(OC)cc1O` (stereo not drawn) [THANNILIGNAN], the results for the Activity in the experiment on Candida albicans and in the experiment on Penicillium expansum were 80 µg and 2 µg, respectively. The half-maximal inhibitory concentration (IC50) with Plasmodium falciparum was greater than 50 µM. In addition, the EC50 in experiment [1] turned out to be 7 µM.
`C[C@@H]1[C@H](O)[C@@H](C)/C=C/C=C/C=C/C=C/C=C/C=C/C=C/[C@H](O[C@@H]2O[C@H](C)[C@@H](O)[C@H](N)[C@@H]2O)C[C@@H]2O[C@](O)(C[C@@H](O)C[C@@H](O)[C@H](O)CC[C@@H](O)C[C@@H](O)CC(=O)O[C@H]1C)C[C@H](O)[C@H]2C(=O)O` [AMPHOTERICIN B]: the Activity with Candida albicans is 1 µg.
Turning to `C=C(Cc1ccc(O)cc1)C(=C)Cc1ccc(O)cc1` [ANOLIGNAN B], the Activity in the experiment on Candida albicans is greater than 200 µg; in the experiment on Penicillium expansum, 5 µg. The compound further showed a 50% inhibitory concentration (IC50) in the experiment with Plasmodium falciparum of 20.5 µM. In experiment [1], the EC50 came out at 7 µM.

One may read the IC50 as the concentration at which inhibition is half-maximal. The term EC50 denotes the concentration needed to bring the measured effect to its halfway point.
